Values of other authors as cited in patent US20210307321A1, “CAPSULE SUSPENSIONS WITH AGROCHEMICAL ACTIVE INGREDIENTS” (priority 2018, published 2021).

Question: For `O=C(Nc1ccc(F)cc1F)c1cccnc1Oc1cccc(C(F)(F)F)c1` [Diflufenican, 2′,4′-Difluoro-2-(a,a,a-trifluoro-m-tolyloxy)nicotinanilide], which “solubility in non-water miscible solvents” value is on record?
Answer: very low solubility
